Laboratory results from paper PMC7667655, “Targeted Covalent Inhibition of Plasmodium FK506 Binding Protein 35” (ACS Medicinal Chemistry Letters, 2020).

Test: Cell viability assay (CellTiter-Glo)
Type: cell-based
Conditions: human; HEK293T, 72 hour treatment; read-out: IC50 cell viability
Description: In 96-well round-bottom plates, sorbitol -synchronized cultures of ring-stage NF54 P. falciparum parasites were established in triplicate and treated with varying concentrations of the inhibitors (25-0.0038 μM) serially diluted in complete medium. Parasite proliferation rates were analyzed after 72 h using the Renilla-Glo Luciferase Assay, and luminescence was measured using the GloMax® Discover Microplate Reader. EC 50 values were obtained from corrected dose-response curves using GraphPad Prism (version 5; GraphPad Software). Data represent the mean % luminescence relative to 5% DMSO-treated (vehicle, 100% growth) and 100 nM chloroquine-treated (no growth) controls.
In black, clear-bottom 96-well plates (No. 3904 Corning Life Sciences), HEK293T cells were plated at 2x10^5 cells/mL in DMEM high glucose, pyruvate media (ThermoFisher Scientific, cat. 11995073) supplemented with 10% FBS and 1% pen -strep (100 μL final volume). Cells were incubated overnight at 37°C, 5% CO2. Using a Tecan D300e digital dispenser, cells were dosed in triplicate […]
concentration, 100 mM stock in DMSO) and Carfilzomib (10 µM to 4.6 nM final concentration, 10 mM stock in DMSO) normalizing DMSO to 0.25%. Cells were then incubated at 37 °C, 5% CO2 for 72 hours. Following incubation, cells were treated with 70 µL CellTiter-Glo® Luminescent Cell Viability Assay Reagent (Promega, cat. G7570) and incubated in the dark at room temperature for 30 minutes. Plates were read using an EnVision Multimode Plate Reader (PerkinElmer). Cell viability data was normalized to DMSO controls and analyzed in GraphPad Prism 8 by fitting the data to “[Inhibitor] vs. normalized response – variable slope” model to obtain the curves.
Each compound was prepared in duplicate at 1 µM final concentration (0.2% DMSO) in human or mouse plasma (Aldrich). […]
After quenching, samples were centrifuged to pellet precipitated partic ulates and an aliquot of supernatant was diluted 1:1 with water. The resulting solution was analyzed by UPLC -MS/MS with compounds detected by MRM detection on a triple quadrupole mass spectrometer. […]

C=CC(=O)Nc1ccccc1[C@@H](CCc1ccc(OC)c(OC)c1)OC(=O)[C@@H]1CCCCN1C(=O)C(=O)C(C)(C)CC [1c]
IC50 at 72 h: 75 µM
